This assay deals with ICR male mouse. The assay is described as follows: Mouse ear swelling suppressing activity (TPA-induced edema). The assay is classed as in vivo. As to conditions: applied to the ear 30 minutes before the TPA application; measured 4 hours after TPA; Mozuku extract 0.25 or 0.5 mg/ear, indomethacin 0.2 mg/ear (FIG. 4). On the procedure: Mouse ear swelling suppressing activity of the Mozuku extract was examined as follows. The thickness of the ear of an ICR male mouse (age: 5 weeks) was measured using a thickness gauge (Digimatic Indicator 543, manufactured by Mitsutoyo Co., Ltd.). The Mozuku extract was applied to the ear in the amount of 0.25 mg/ear or 0.5 mg/ear. As a comparative test, an indomethacin solution, prepared by dissolving indomethacin at a concentration of 1.0% in 70% acetone, was applied to the mouse ear in the amount of 0.2 mg/ear. 30 minutes after the application, 10 μl of a […] solution of 12-O-tetradecanoylphorbol-13-acetate (TPA) in 70% acetone was applied to the in and out sides of the mouse ear to induce a skin reaction. The thickness of the ear skin was measured after 4 hours at which the value of the swelling became the maximum. The ratio of the measured thickness to the thickness of the ear skin before the edema induction was calculated as the ratio of edema. The thickness of both the right and left ear skins was measured and the values were averaged to determine the ear skin thickness of the mouse.

`COc1ccc2c(c1)c(CC(=O)O)c(C)n2C(=O)c1ccc(Cl)cc1` [indomethacin]: the “edema suppressing effect (ratio of edema, ear skin thickness)” value is listed as “remarkable edema suppressing effect”.

(Values after patent US20040057913A1, “Antioxidant and skin preparations for external use” (priority 2000, published 2004).)
